Series [1] can be described thus: HPLC assay of thiosulfonate reduction by TCEP or ascorbate. It counts as physicochemical. As for the experimental part: FIG. 5A-B. The thiosulfonate product is reduced by TCEP, but not ascorbate. A 0.5 mM solution of the thiosulfonate product was incubated with 2.5 mM TCEP or 2.5 mM sodium ascorbate in phosphate buffer (pH 7.4) in the dark at room temperature. After 5 minutes and 60 minutes, an aliquot injected for HPLC analysis and separated using gradient elution (5% ACN to 95% ACN over 15 minutes).

Series [2] can be described thus: HPLC cross-reactivity assay of phenylsulfinic acid. The format is physicochemical. Here is the method:
FIG. 3. […] A 10 mM solution of phenylsulfinic acid was allowed to react with a 20 mM solution of iodoacetamide in potassium phosphate buffer pH 7.4 for 5 hours. After 5 hours, the reaction mixture was injected on an HPLC and separated using gradient elution (5% ACN to 95% ACN over 15 minutes). Absence of additional peaks (over 202-798 nm, monitored on a PDA detector) was interpreted as no reaction between the sulfinic acid and iodoacetamide.
A 2 mM solution of phenylsulfinic acid was allowed to stand with 20 mM solutions of N-acetyl-cysteine-methyl ester, benzaldehyde, cystine dimethyl ester, and 5,5′-dithiobis-(2-nitrobenzoic acid) in phosphate buffer pH 7.4 for 5 hours. The reaction mixtures were injected on an HPLC and analyzed using gradient elution (5% ACN to 95% ACN over 15 minutes). Peaks beyond minute 8.6 in (a) are contaminants present in the commercial cysteine sample (Sigma-Aldrich).
Cross-reactivity was determined by allowing components to react for 4 hours. HPLC analysis (every 30 minutes) was used to monitor reactions. Reduction in peak intensity of initial components and the appearance of new peak was termed as a positive reaction. Partial reaction indicates incomplete reaction.

Series [3] is described as follows: Rate constant determination: loss of GSNO absorbance after phenylsulfinic acid addition. It counts as physicochemical. As for the experimental part: FIG. 6A-B. GSNO is consumed by increasing concentrations of sodium phenylsulfinate. (a) A 2 mM solution of S-nitrosoglutathione (GSNO, Cayman) was treated with increasing concentrations of phenylsulfinic acid, and the absorbance of GSNO was monitored over a period of 90 minutes at 340 nm using a plate reader in varying pH buffers. (b) Calculation of rate constants at differing pH values. At pH 7, the rate becomes more hyperpbolic.
Thiosulfonate formation was further characterized by measuring the loss of S-nitroso-glutathione (GSNO) absorbance after phenylsulfinic acid addition (FIG. 6). At pH 1 and 4, the reaction rate is first order and proceeds at 3×10^−5 M·sec^−1. […]
S-nitrosoglutathione (GSNO, Cayman) and sodium phenylsulfinate (Sigma-Aldrich) were used for rate-determination studies at four pH values: pH 1.0 (0.2 N HCl/KCl buffer), pH 4.0 (0.1 M Sodium acetate/Acetic Acid buffer), pH 7.0 (0.1 M potassium phosphate buffer) and pH 10.0 (0.1 M Sodium bicarbonate/Sodium hydroxide buffer). The purity of S-nitrosoglutathione was calculated as 94±1.3% by absorbance at 334 nm using the molar extinction coefficient of 900 M^−1 cm^−1. Assays were performed using a plate reader (Tecan Infinite F500) monitoring absorbance of 2 mM GSNO at 340 nm over a course of 90 minutes in the presence of varying concentrations of sodium phenylsulfinate. […]

Series [4] relates to S-nitrosylated proteins in mammalian cell lysates. As to the kind of experiment: Gel-based labeling of endogenous S-nitrosylated proteins in cell lysates. It counts as biochemical, human. Particulars: lysates denatured, alkylated with iodoacetamide; streptavidin detection. As for the experimental part:
FIG. 8. Dose-dependent labeling of S-nitrosylated proteins by biotin-SO2H. 293T and PANC1 cells were lysed in 6 M urea/PBS and alkylated with 50 mM iodoacetamide for 30 minutes, followed by incubation with increasing concentrations of biotin-SO2H for 45 minutes.
Next, the reactivity of sulfinic acids with native S-nitrosylated proteins was examined. Biotin and fluorescein N-hydroxysuccinimide (NHS) esters were directly coupled to the biological sulfinic acid metabolite hypotaurine (biotin-SO2H) or the sulfonic acid metabolite taurine (biotin-SO3H). Each probe was incubated with mammalian cell lysates pre-alkylated with excess iodoacetamide (FIG. 1b) in 6 M urea/phosphate buffered saline (PBS), and separated by non-reducing SDS-PAGE for transfer to nitrocellulose and streptavidin detection. […]
Cells and lysates were protected from light and kept on ice throughout the labeling protocol, except when noted. […] Lysate protein concentrations were quantified using the Bio-Rad DC assay, and diluted 3 mg/mL in 6 M urea/PBS. […] For in-gel fluorescence analysis, samples were loaded without boiling using non-reducing SDS-PAGE loading buffer for SDS-PAGE separation. […] In-gel fluorescence and streptavidin blots were analyzed using a GE typhoon scanner at appropriate wavelengths (488/526 for fluorescein and 633/670 for Cy5-Streptavidin).

Another series concerns the target T1, Recombinant human GAPDH (Homo sapiens, UniProt P04406).
T1 construct: 6His; made in house; host or cells: E. coli BL21
The experiment in a line: Labeling of recombinant GAPDH (in-gel fluorescence, LC-MS). It counts as biochemical. Here is the method:
FIG. 14. Profiling fluorescein-SO2H reactivity and selectivity on S-nitrosylated GAPDH. Recombinant human GAPDH was resuspended in 6 M urea/PBS, treated with 50 mM iodoacetamide for 30 minutes, and mixed with dimedone, ascorbate, peroxide or NO donor (5 minutes). Fluorescein-SO2H (500 μM) was then added to the GAPDH sample for 45 minutes. S-nitrosylated human GAPDH labeling increases upon incubation with the NO donor MAHMA-NONOate, and decreases following treatment with ascorbate. […] Fluorescein-SO2H labeling is unaffected by pre-incubation with peroxide or dimedone.
FIG. 15. Biotin-SO2H reacts with human GAPDH and forms a thiosulfonate. Recombinant human GADPH was labeled with biotin-SO2H for site-specific analysis of S-nitrosylation by high-resolution mass spectrometry.
Given the efficient and selective conjugation of sulfinic acids and nitrosothiols, recombinant human GAPDH were next purified for targeted analysis of S-sulfinylation with biotin-SO2H. […] Biotin-SO2H-labeled GAPDH protein was digested with trypsin and analyzed by high-resolution mass spectrometry, identifying a biotin-thiosulfonate modified peptide encompassing the GAPDH catalytic cysteine (FIG. 15). […] These studies confirm direct detection of native of S-sulfinylation by sulfinic acid probes for mass spectrometry analysis.
Purified human GAPDH was diluted to 0.2 mg/mL in phosphate buffered saline (pH 7.3), and treated with 20 mM iodoacetamide for 30 minutes. Next, the sample was treated with 100 μM biotin-SO2H. Purified human DJ-1 was diluted to 0.2 mg/mL in PBS, and incubated with 20 mM iodoacetamide to alkylated free thiols. Next, the sample was treated with 2 mM hydrogen peroxide for 20 minutes to promote Cys106 sulfinic acid formation. […] Eluted peptides were analyzed using a Waters Synapt G2-S HDMS time-of-flight mass spectrometer in positive mode. […] MS data was searched using Waters Protein Lynx Global Server v3.0 using the exact mass calculated for the cysteine thiosulfonate modification.

Series [5] concerns sulfenic acids in 293T cell lysates. The experiment in a line: Dimedone-alkyne detection of sulfenic acids in lysates. It counts as biochemical, human. As for the experimental part:
FIG. 12. Sulfenic acids are eliminated by ascorbate reduction or denaturing buffers. Lysates were labeled for 1 hour with 1 mM dimedone-alkyne, and precipitated with chloroform:methanol. The protein fraction was sonicated in PBS and diluted to 1 mg/mL, and incubated with 20 μM TAMRA-azide, 1 mM CuSO4, and 100 μM Tris[(1-benzyl-1H-1,2,3-triazol-4-yl)methyl]amine (TBTA) for 1 hour, boiled in reducing loading buffer, and separated by SDS-PAGE. After transfer and Cy5-streptavidin binding, the gel was visualized using a GE Typhoon fluorescence scanner. […] Pre-treatment with sodium ascorbate (20 mM) for 30 minutes efficiently reduces sulfenic acids. […] Furthermore, ascorbate reduces sulfenic acids, and confirms non-selective enrichment of an additional cysteine oxidative modification by the biotin-switch method.

T1 sequence (P04406 whole entry): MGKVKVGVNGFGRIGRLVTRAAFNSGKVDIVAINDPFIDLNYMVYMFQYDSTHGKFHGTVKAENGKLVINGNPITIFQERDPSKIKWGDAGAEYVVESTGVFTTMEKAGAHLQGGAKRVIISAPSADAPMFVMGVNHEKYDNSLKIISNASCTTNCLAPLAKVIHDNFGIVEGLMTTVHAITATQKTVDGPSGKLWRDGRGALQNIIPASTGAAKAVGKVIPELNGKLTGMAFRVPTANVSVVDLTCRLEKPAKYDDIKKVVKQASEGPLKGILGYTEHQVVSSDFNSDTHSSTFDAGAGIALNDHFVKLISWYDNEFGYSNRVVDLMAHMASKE

Turning to `COC(=O)[C@H](CSS(=O)(=O)c1ccccc1)NC(C)=O` [thiosulfonate product, (R)-methyl 2-acetamido-3-((phenylsulfonyl)thio)propanoate], in series [1] (0.5 mM with 2.5 mM TCEP, phosphate buffer pH 7.4, room temperature), the “cleavage of thiosulfonate bond by TCEP” value was “immediately cleaves”. Further, the “cleavage of thiosulfonate bond by ascorbate” value in series [1] (0.5 mM with 2.5 mM sodium ascorbate, pH 7.4, 60 minutes) was “does not”.

`O=S(O)c1ccccc1` [phenylsulfinic acid]: the “reaction with thiols, disulfides, or aldehydes” value in series [2] (2 mM with 20 mM N-acetyl-cysteine-methyl ester, benzaldehyde, cystine dimethyl ester, DTNB, phosphate buffer pH 7.4, 5 hours) is given as “do not react”. In series [2] (10 mM with 20 mM iodoacetamide, potassium phosphate buffer pH 7.4, 5 hours), the reaction with iodoacetamide entry is given as “no reaction”. The “reaction with GSNO” value in series [3] (basic conditions) is recorded as “no reaction occurs”. The “reaction rate of thiosulfonate formation with GSNO” value in series [3] (pH 1 and 4, first order) was found to be 3e-05 M/s. For the molecule `O=C(CCCC[C@@H]1SC[C@@H]2NC(=O)N[C@@H]21)NCCS(=O)(=O)O` [biotin-SO3H, 2-(5-((3aS,4S,6aR)-2-oxohexahydro-1H-thieno[3,4-d]imidazol-4-yl)pentanamido)ethanesulfonic Acid], in series [4], the “labeling of mammalian proteins” value is on record as “unreactive”. With `O=C(NCCS(=O)(=O)O)c1ccc(-c2c3ccc(=O)cc-3oc3cc(O)ccc23)c(C(=O)O)c1` [fluorescein-SO3H, 2-(6-hydroxy-3-oxo-3H-xanthen-9-yl)-5-((2-sulfoethyl)carbamoyl)benzoic Acid], the “labeling of GAPDH” value at Recombinant human GAPDH (6 M urea/PBS, 50 mM iodoacetamide, probe 45 minutes) is “does not label GAPDH”. `O=C(NCCS(=O)O)c1ccc(-c2c3ccc(=O)cc-3oc3cc(O)ccc23)c(C(=O)O)c1` [Fluorescein-SO2H, 2-(6-hydroxy-3-oxo-3H-xanthen-9-yl)-5-((2-sulfinoethyl)carbamoyl)benzoic Acid]: on Recombinant human GAPDH (500 μM probe, 45 minutes), the “GAPDH labeling after pre-incubation with peroxide or dimedone” value was “unaffected”. For the molecule `C#CCCCC1CC(=O)CC(=O)C1` [Dimedone alkyne, 5-(pent-4-yn-1-yl)cyclohexane-1,3-dione], the “detection of sulfenic acids” value in series [5] (1 mM, 1 hour, PBS) was “most efficient in PBS”. Also, the dimedone labeling entry in series [5] (lysate denatured in 6 M urea/PBS) is on record as “nearly completely eliminated”.

For the origin of these results see patent US10408843B2, “Compositions and methods for detecting S-nitrosylation and S-sulfinylation” (The Regents of the University of Michigan, priority 2013, dated 2019).
